Assay results taken from the OPERA property sets (Mansouri et al. 2018).

Details: not given

SMILES | melting point | boiling point | log10 vapour pressure (mmHg) | log10 Koc (L/kg) | ready biodegradability | log10 Henry constant (atm·m³/mol) | log10 Koa
C[C@]12C/C(=C/O)C(=O)C[C@@H]1CC[C@@H]1[C@@H]2CC[C@@]2(C)[C@H]1CC[C@]2(C)O | 179 °C | – | – | – | – | – | –
C[C@H]1O[C@H](O[C@H]2CC[C@H](n3ccc(NC(=O)c4ccc(NC(=O)[C@@](C)(N)CO)cc4)nc3=O)O[C@@H]2C)[C@H](O)[C@@H](O)[C@@H]1N(C)C | 167 °C | – | – | – | – | – | –
CCOC(O)C(Cl)(Cl)Cl (stereo unspecified) | 56.5 °C | 116 °C | – | – | – | – | –
Cc1cc(C)nc(Nc2ccccc2)n1 | 96.3 °C | – | -4.78 | – | – | – | –
Nc1cc(N2CCCCC2)nc(N)[n+]1[O-] | 248 °C | – | – | – | – | – | –
COP(=O)(OC)OC=C(Cl)Cl | -60 °C | 234 °C | -1.8 | 1.67 | readily biodegradable | – | –
O=C(O)C1C(C(=O)O)C2(Cl)C(Cl)=C(Cl)C1(Cl)C2(Cl)Cl (stereo unspecified) | 209 °C | – | – | 2.79 | not readily biodegradable | – | –
CC(Cc1ccc(C(C)(C)C)cc1)CN1C[C@@H](C)O[C@@H](C)C1 (single isomer, unassigned) | – | – | -4.59 | – | – | – | –
CN1[C@H]2CC[C@@H]1[C@@H](C(=O)O)[C@H](O)C2 | 205 °C | – | – | – | – | – | –
CCc1oc2ccccc2c1C(=O)c1cc(Br)c(O)c(Br)c1 | 151 °C | – | – | – | – | – | –
Cn1ccc2ccccc21 | – | 237 °C | – | – | – | – | –
CC(C)c1ccccc1-c1ccccc1 | – | – | -3.3 | – | – | – | –
C=CCc1cc2c(c(OC)c1OC)OCO2 | 29.5 °C | 285 °C | – | – | – | – | –
CC(=O)CC(=O)c1cccnc1 | 85 °C | – | – | – | – | – | –
CCOC(=O)C(Cl)CCl (stereo unspecified) | – | 184 °C | – | – | – | – | –
c1ccc(CSCc2ccccc2)cc1 | 49.5 °C | – | – | – | – | – | –
CC(COc1ccccc1)NC(C)C(O)c1ccc(O)cc1 (stereo unspecified) | 103 °C | – | – | – | – | – | –
C=C[N+](=O)[O-] | -55.5 °C | 98.5 °C | – | – | – | – | –
Cc1cc(Cl)ccc1NC(=S)N(C)C | 175 °C | – | – | – | – | – | –

SMILES | melting point | boiling point | log10 vapour pressure (mmHg) | log10 Koc (L/kg) | ready biodegradability | log10 Henry constant (atm·m³/mol) | log10 Koa
O=[N+]([O-])c1ccc(C=NO)cc1 | 128 °C | – | – | – | – | – | –
Cc1ccc2c(c1C)CCCC2 | – | 252 °C | – | – | – | – | –
C=CC(C)(O)CC (stereo unspecified) | – | 118 °C | – | – | – | – | –
Nc1ccc(Nc2ccccc2)c2c1C(=O)c1ccccc1C2=O | 192 °C | – | – | – | – | – | –
C=C(C)[C@H]1Cc2c(ccc3c2O[C@@H]2COc4cc(OC)c(OC)cc4[C@@H]2C3=O)O1 | 176 °C | – | – | 4 | – | – | –
Cc1ccc(O)c(C(C)(C)C)c1 | 51.5 °C | 237 °C | -1.6 | – | not readily biodegradable | – | –
O=C(O)CCI | 81.5 °C | – | – | – | – | – | –
O=C(O)/C=C/Cl | 82 °C | – | – | – | – | – | –
Clc1ccc(-c2c(Cl)ccc(Cl)c2Cl)cc1 | – | – | – | – | – | -3.85 | 8.41
CCCCCOc1ccccc1 | – | 200 °C | – | – | – | – | –
O=C(c1ccc(F)cc1)c1ccc(F)cc1 | 104 °C | – | – | – | – | – | –
COc1ccc(C=O)cc1OC | 43 °C | 281 °C | – | – | readily biodegradable | – | –
CC(=O)CC(c1ccccc1)c1c(O)c2ccccc2oc1=O (stereo unspecified) | – | – | -6.94 | 2.96 | – | – | –
CCCC(C)C(CC)CC (stereo unspecified) | – | 165 °C | – | – | – | – | –
CCCC(=O)O[C@]1(C(=O)CCl)[C@@H](C)C[C@H]2[C@@H]3CCC4=CC(=O)C=C[C@]4(C)[C@@]3(F)C(=O)C[C@@]21C | 95 °C | – | – | – | – | – | –
CCCCC(C)CC(C)C (stereo unspecified) | – | 156 °C | – | – | – | – | –
CC(=O)c1ccc(N)cc1 | – | 294 °C | – | – | not readily biodegradable | – | –
O=C(O)C=Cc1ccco1 | 143 °C | – | – | – | – | – | –

Same assay, conditions: fish

SMILES | log10 BCF | log10 biotransformation half-life (days)
COP(=O)(OC)OC=C(Cl)Cl | -0.3 | –
O=C(O)C1C(C(=O)O)C2(Cl)C(Cl)=C(Cl)C1(Cl)C2(Cl)Cl (stereo unspecified) | 0.32 | –
C=C(C)[C@H]1Cc2c(ccc3c2O[C@@H]2COc4cc(OC)c(OC)cc4[C@@H]2C3=O)O1 | 1.41 | -0.59
Clc1ccc(-c2c(Cl)ccc(Cl)c2Cl)cc1 | – | 2.35
